A compilation of properties of binary mixtures (doi:10.1016/j.molliq.2016.03.072)

Test: xn = mol fraction of the nth substance listed
Conditions: 101 kPa

CN(C)C=O + CCCC[n+]1ccn(C)c1.F[P-](F)(F)(F)(F)F
x1 = 1
Conditions	viscosity [mPa·s]
303.15 K	0.83
313.15 K	0.74
323.15 K	0.66

CCCC[n+]1ccn(C)c1.F[P-](F)(F)(F)(F)F + CN(C)C=O
viscosity [mPa·s]
Conditions	x2 = 0	x2 = 0.3028	x2 = 0.4909	x2 = 0.6262	x2 = 0.7227	x2 = 0.7963	x2 = 0.8543	x2 = 0.9012	x2 = 0.9399	x2 = 0.9724
303.15 K	–	52.1	15.21	6.21	3.48	–	1.93	1.5	–	0.98
313.15 K	129.7	28.84	–	5.2	3.33	2.12	–	1.26	1.05	0.83
323.15 K	88.5	25.91	–	–	2.2	1.82	1.51	1.08	0.91	0.77
